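Five concentrations, 48 hours, 96-well plates. Abbreviation: GI50, concentration required for 50% inhibition of growth.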 The source made the active and inactive calls. Rule as the data show it: active = GI50 up to about 1.1 µM and inactive = higher.
Tests used:
Assay in all cases: inhibition of tumour cell growth, NCI panel, 48 h
ACHN = tested on: ACHN
CAKI-1 = tested on: CAKI-1
CCRF-CEM = tested on: CCRF-CEM
EKVX = tested on: EKVX
HCT-116 = tested on: HCT-116
Hs-578T = tested on: Hs-578T
IGROV-1 = tested on: IGROV-1
KM12 = tested on: KM12
MDA-MB-231 = tested on: MDA-MB-231
MDA-N = tested on: MDA-N
NCI-H226 = tested on: NCI-H226
OVCAR-4 = tested on: OVCAR-4
RXF 393 = tested on: RXF 393
SF-539 = tested on: SF-539
SK-MEL-2 = tested on: SK-MEL-2
SN12C = tested on: SN12C
SNB-75 = tested on: SNB-75
UO-31 = tested on: UO-31
BT-549 = tested on: BT-549

Measured: GI50

O=[N+]([O-])c1ccc(N/N=C/CC(O)(C(F)(F)F)C(F)(F)F)c([N+](=O)[O-])c1
inactive: ACHN 3.52 µM | CAKI-1 3.15 µM | CCRF-CEM 3.99 µM | EKVX 5.35 µM | HCT-116 3.03 µM | Hs-578T 2.74 µM | IGROV-1 4.47 µM | KM12 4.82 µM | MDA-MB-231 > 10 µM | MDA-N 5.25 µM | NCI-H226 3.72 µM | OVCAR-4 4.99 µM | RXF 393 5.35 µM | SF-539 2.3 µM | SK-MEL-2 2.21 µM | SN12C 3.41 µM | SNB-75 > 10 µM | UO-31 3.06 µM

CC(C)N1CCCOC(c2ccc([N+](=O)[O-])cc2)O1 (stereo not given)
inactive: ACHN > 100 µM | BT-549 > 100 µM | CAKI-1 > 100 µM | CCRF-CEM > 100 µM | EKVX > 100 µM | HCT-116 > 100 µM | IGROV-1 > 100 µM | KM12 > 100 µM | MDA-MB-231 > 100 µM | MDA-N > 100 µM | NCI-H226 > 100 µM | OVCAR-4 > 100 µM | RXF 393 > 100 µM | SF-539 > 100 µM | SK-MEL-2 > 100 µM | SN12C > 100 µM | SNB-75 > 100 µM | UO-31 > 100 µM

COc1ccc(/C(=N/Nc2ccccc2)C(c2ccc(OC)cc2)C2OC(=O)c3ccccc32)cc1 (stereo not given)
inactive: ACHN 97.1 µM | CAKI-1 41.9 µM | CCRF-CEM 79.8 µM | EKVX 37.8 µM | HCT-116 > 100 µM | IGROV-1 83.9 µM | NCI-H226 9.84 µM | OVCAR-4 > 100 µM | RXF 393 > 10 µM | SF-539 > 100 µM | SK-MEL-2 > 100 µM | SN12C > 100 µM | SNB-75 48.9 µM | UO-31 60.7 µM

C(=C\c1ccccc1)/Cn1nc(-c2ccccc2)nc1-c1cnccn1
inactive: BT-549 > 100 µM | CCRF-CEM > 100 µM | EKVX > 100 µM | HCT-116 > 100 µM | IGROV-1 > 100 µM | KM12 > 10 µM | MDA-MB-231 > 100 µM | MDA-N > 100 µM | OVCAR-4 68.9 µM | RXF 393 > 100 µM | SF-539 > 100 µM | SN12C > 100 µM | SNB-75 18.7 µM | UO-31 > 100 µM

N=C(N)Nc1nc2cc(N)ccc2o1
inactive: ACHN > 100 µM | CAKI-1 > 100 µM | CCRF-CEM > 100 µM | EKVX > 100 µM | HCT-116 > 100 µM | KM12 > 100 µM | NCI-H226 > 100 µM | OVCAR-4 > 100 µM | SF-539 > 100 µM | SK-MEL-2 > 100 µM | SN12C > 100 µM | SNB-75 > 100 µM | UO-31 > 100 µM

CC(=O)NC(C)(C)C1CCC(C)=C(c2ccccc2)C1 (stereo not given)
inactive: BT-549 > 100 µM | CCRF-CEM 96.8 µM | EKVX > 100 µM | HCT-116 87.5 µM | IGROV-1 > 100 µM | KM12 > 100 µM | MDA-MB-231 55.8 µM | MDA-N > 100 µM | OVCAR-4 > 100 µM | SF-539 > 100 µM | SN12C > 100 µM | SNB-75 53.6 µM | UO-31 > 100 µM

O=C(N/N=C(COc1ccc([N+](=O)[O-])cc1)\N=C\c1ccncc1)c1ccncc1
inactive: ACHN > 100 µM | BT-549 > 100 µM | CAKI-1 > 100 µM | CCRF-CEM > 100 µM | EKVX > 100 µM | HCT-116 > 100 µM | IGROV-1 > 100 µM | KM12 > 100 µM | MDA-MB-231 > 100 µM | MDA-N > 100 µM | NCI-H226 > 100 µM | OVCAR-4 > 100 µM | RXF 393 > 100 µM | SF-539 > 100 µM | SK-MEL-2 > 100 µM | SN12C > 100 µM | SNB-75 94.6 µM

CS(=O)(=O)OCCN(CCOS(C)(=O)=O)c1ccc(/C=N/N=c2/nc[nH]c3nc[nH]c23)cc1
inactive: ACHN 17.4 µM | CAKI-1 14.2 µM | CCRF-CEM 8.09 µM | EKVX 33.2 µM | HCT-116 17.3 µM | IGROV-1 19.1 µM | KM12 15.6 µM | NCI-H226 19.3 µM | OVCAR-4 22.7 µM | RXF 393 15.7 µM | SF-539 18.3 µM | SK-MEL-2 20.4 µM | SN12C 35.2 µM | SNB-75 14.6 µM | UO-31 28.3 µM

CC(C)CC(NC(=O)C(Cc1ccccc1)NC(=O)[C@H]1CC[C@H](NC(=O)C(Cc2ccc(OC(C)(C)C)cc2)NC(=O)OC(C)(C)C)C1)C(N)=O (stereo not given in full)
inactive: ACHN 39.8 µM | CAKI-1 > 100 µM | CCRF-CEM 14.6 µM | EKVX > 100 µM | HCT-116 14.7 µM | Hs-578T 11.5 µM | IGROV-1 23.1 µM | KM12 20.2 µM | MDA-MB-231 31.9 µM | MDA-N 19.3 µM | NCI-H226 18.6 µM | OVCAR-4 29 µM | RXF 393 67.8 µM | SF-539 14.4 µM | SK-MEL-2 20.2 µM | SN12C 17.7 µM | SNB-75 27.8 µM | UO-31 47 µM

COC(=O)C1(Cc2ccccc2)Cc2c(C)ccc(C)c2C1=O (stereo not given)
inactive: ACHN 26.9 µM | CCRF-CEM 34.8 µM | EKVX 4.69 µM | HCT-116 19.8 µM | Hs-578T 5.64 µM | IGROV-1 36.7 µM | KM12 13.8 µM | MDA-MB-231 15.7 µM | MDA-N 37.1 µM | NCI-H226 21.1 µM | OVCAR-4 32.4 µM | RXF 393 21.8 µM | SF-539 39.9 µM | SN12C 47.8 µM | SNB-75 17.3 µM | UO-31 10.8 µM

COC(=O)Cc1cccc2c1CCC2=O
inactive: ACHN > 100 µM | CCRF-CEM > 100 µM | EKVX > 100 µM | HCT-116 > 100 µM | Hs-578T > 100 µM | IGROV-1 > 100 µM | KM12 > 100 µM | MDA-MB-231 > 100 µM | MDA-N > 100 µM | NCI-H226 > 100 µM | OVCAR-4 > 100 µM | RXF 393 > 100 µM | SF-539 > 100 µM | SN12C > 100 µM | SNB-75 > 100 µM | UO-31 > 100 µM

CCOC(=O)NC(NC(C)CC)(C(F)(F)F)C(F)(F)F (stereo not given)
inactive: ACHN > 100 µM | CAKI-1 > 100 µM | CCRF-CEM > 100 µM | EKVX > 100 µM | HCT-116 > 100 µM | Hs-578T > 100 µM | IGROV-1 > 100 µM | KM12 > 100 µM | MDA-MB-231 > 100 µM | MDA-N > 100 µM | NCI-H226 > 100 µM | OVCAR-4 > 100 µM | RXF 393 > 100 µM | SF-539 > 100 µM | SK-MEL-2 > 100 µM | SN12C > 100 µM | SNB-75 > 100 µM | UO-31 > 100 µM

Reference: ChEMBL document CHEMBL1201862, “PubChem BioAssay data set” (2004)
